Patent US10273279B2, “Protease activated receptor-1 (PAR1) derived cytoprotective polypeptides and related methods” (THE SCRIPPS RESEARCH INSTITUTE, priority 2011, dated 2019)
Where no end group is shown, it is not given here.

Tests used:
[1] = tested on: glycogen synthase kinase 3β (GSK3β) phosphorylation at Ser9; test: GSK3β Ser9 phosphorylation in endothelial cells; type: cell-based, human
Experimental: To further confirm activation of Akt by the TR47-66 peptide, Akt-mediated inactivation of glycogen synthase kinase 3β (GSK3β) via phosphorylation at Ser9 was determined. GSK3β is a well-known downstream substrate for Akt.

[2] = tested on: Akt phosphorylation at Ser473 in EA.hy.926 human endothelial cells; test: Akt Ser473 phosphorylation in EA.hy.926 endothelial cells (in-cell Western); type: cell-based
Excerpt: (§1) Activated Protein C (APC) cleaves a synthetic PAR1 tail peptide at Arg^41 and Arg^46; furthermore, APC cleaves SEAP-PAR1 mutants with the mutations R41A or R41Q but not SEAP-PAR1 with both R41Q/R46Q mutations. […] It was thus hypothesized that a new PAR1 N-terminus beginning at residue Asn-47 promotes PAR1 signaling and APC cytoprotective activities. Since phosphorylation of signaling network components is useful for monitoring activation of signaling pathways, the effects of synthetic PAR1 peptides on Akt and ERK1/2 phosphorylation in EA.hy.926 human endothelial cells were studied. Cells were treated for 0, 5 or 30 min with peptides prior to cell fixation, permeabilization of cells and subsequent immunoblotting analysis (“in-cell Western blotting”). Relative phosphorylation of Akt at Ser^473 (pSer^473-Akt) or of ERK1/2 at Thr202/204 (pERK1/2) in endothelial cells was quantified using the LI-COR Odyssey infrared (IR) fluorescence imaging system which permits “in cell” Western blots. The Odyssey permits simultaneous quantification of different antibodies that yield either red or green signals.
(§2) Methods: EA.hy.926 cells (ATCC: CRL-2922) were grown in black clear bottom 96 well plates (Nunc) in DMEM (Invitrogen #12430) supplemented with glutamax (Invitrogen #35050) and 10% FBS (Hyclone #35-011-CV) in a 37° C. cell incubator with a humidified atmosphere and 5% CO2 in air until confluency. Cells were treated for 0, 5 or 30 min with PAR1 peptides TFLL (50 μM), NPND (250 μM) or scr-NPND (250 μM) or with vehicle in serum free media. Subsequently cells were fixed with methanol free 4% para-formaldehyde (Pierce), washed with phosphate buffered saline (PBS; Invitrogen) containing 1% triton X-100 and blocked with Odyssey blocking buffer (Licor). Cells were incubated with rabbit anti-pT202/Y204 ERK1/2 (1/1000; Cell signaling D13.14.4E) or rabbit anti-pSer^473 (1/100; cell signaling D9E) with Odyssey blocking buffer. After washing with PBS/0.1% Tween (1/800), IRDye 800CW-labelled secondary goat anti-rabbit antibodies (Licor) were added to the cells in Odyssey blocking buffer and 1/10,000 Draq5 (Biostatus) for cell normalization. After final washing with PBS/0.1% Tween IR, the fluorescence of bound antibodies was determined using the Odyssey (Licor). Background fluorescence was determined by omitting the primary antibody and subtracting values for controls from all other observed values.

[3] = tested on: ERK1/2 phosphorylation at Thr202/204 in EA.hy.926 human endothelial cells; test: ERK1/2 phosphorylation in EA.hy.926 endothelial cells (in-cell Western); type: cell-based
Excerpt: as §1, §2

[4] = tested on: EA.hy.926 endothelial cells; test: Staurosporine-induced endothelial cell apoptosis (Apopercentage dye); type: cell-based, human; conditions: 4 hrs pretreatment; 50 μM NPND, 50 μM scr-NPND or 10 μM TFLL; staurosporine 10 μM
Experimental: Activated Protein C (APC) conveys anti-apoptotic activity to EA.hy.926 cells that requires functional PAR1 receptor and APC binding to the endothelial protein C receptor (EPCR). See, e.g., Mosnier at al., Biochem J. 2003; 373:65-70; and Mosnier at al., Blood. 2007; 109:3161-3172.
Methods: EA.hy.926 cells (ATCC: CRL-2922) were grown in 24 well plates in DMEM (Invitrogen #12430) supplemented with glutamax (Invitrogen #35050) and 10% FBS (Hyclone #35-011-CV) in a 37° C. cell incubator with a humidified atmosphere and 5% CO2 in air until confluency. Cells were treated for 4 hrs with vehicle control, 50 μM NPND, 50 μM scr-NPND or 10 μM TFLL after which staurosporine (10 μM) and the Apopercentage dye (Biocolor) were added according the manufacturer's instructions. After 1 hr cells were washed with 2×1 ml PBS and 110 μl of the dye release agent was added to the cells. Subsequently 100 μl aliquots were transferred to a black 96 well plate and fluorescence was measured (530 nm excitation/580 nm emission). Apoptosis was expressed as a percentage of cells treated with 10 mM H2O2 for which apoptosis was set at 100%.

[5] = tested on: SEAP-PAR1; test: SEAP-PAR1 cleavage reporter on transfected HEK-293 cells (SEAP release); type: cell-based, human; conditions: independent of EPCR
Excerpt: To facilitate analysis of APC-mediated PAR-1 activation, we created a full-length PAR-1 construct linked at the N-terminus to an alkaline phosphatase reporter group (SEAP). Selection of stable cell lines expressing both endothelial protein C receptor (EPCR) (wt or E86A) and SEAP-PAR1 allowed for a reliable and reproducible analysis of EPCR-dependent PAR-1 activation by APC. Mass-spec analysis of cleavage fragments generated by APC of a synthetic PAR-1 N-terminal tail peptide (TR33-62) identified both Arg^41 and Arg^46 as potential cleavage sites for APC proteolysis, as noted above. […] R41Q-SEAP-PAR1 was cleaved by APC in the presence of EPCR. This surprising result was also obtained for R41A-SEAP PAR1.
2009; 113:5970-5978. SEAP-PAR1, either in the presence or absence of wt-EPCR, were transfected into HEK-293 cells to obtain stable cells expressing SEAP-PAR1 or wt-EPCR/SEAP-PAR1. Mutations in SEAP-PAR1 were introduced using the Quickchange method (Agilent). Cells were grown in 96-wells plates to confluency in Dulbeco's modified Eagle media (DMEM): Ham's F-12 (Invitrogen) supplemented with penicillin-streptomycin-glutamine (PSG) (Gibco) and 10% fetal bovine serum (Omega) in a humidified atmosphere at 37° C. and 5% CO2 Cells were washed with Hank's balanced salt solution (HBSS; Invitrogen) supplemented with 1.3 mM CaCl2, 0.6 mM MgCl2 and 0.1% endotoxin free BSA (Calbiochem) and incubated with APC. After 60 min, SEAP release was determined using 1-step PNPP (Pierce). Values were corrected for background activity derived from the same cells incubated in the absence of APC and expressed as a percentage of total SEAP available on the cell membrane.

[6] = 0, 5 or 30 min, TFLL 50 μM, NPND 250 μM, scr-NPND 250 μM

With `CC(C)c1ccc(Cn2ccc3c4c(N)nc(NC5CC5)nc4ccc32)cc1` [SCH79797] as the compound, how does the “effect on TR47-66-induced Ser9-GSK3β phosphorylation” value ([1]; PAR1 antagonist added to TR47-66) read?
Its value is “inhibited”.

“TFLLRNPNDK (not fully specified) [reference compound]” was tested. Which “pSer473-Akt (Akt phosphorylation)” value [2, 6] did it give?
The value was “essentially no effect”.

And the “Ser473-Akt phosphorylation (activation of Akt)” value ([2]; Example 7, under the employed experimental conditions)?
The value was “neither thrombin nor TRAP induced”.

What about the “ERK1/2 phosphorylation (pERK1/2)” value [3, 6] of the same compound?
Its value is “quickly but transiently stimulated”.

What about the “activation of ERK1/2” value ([3]; Example 7) of the same compound?
The value was “did so”.

And the “inhibition of staurosporine-induced endothelial cell apoptosis” value [4]?
The value was “did not convey detectable anti-apoptotic effects”.

And the “phosphorylation of GSK3β at Ser9” value ([1]; Example 7)?
Its value is “did not result in Ser9-GSK3β phosphorylation”.

elastase [reference compound] was tested. Which “cleavage of all PAR1 constructs on cells” value [5] did it give?
Its value is “cleaved all PAR1 constructs on cells with similar efficacy”.
